# Reference: PubChem BioAssay AID1963964 (Molecular Pharmacology Branch, DTP, NCI, 2024)
# Test system: 997726-040-R-J2-PDC tumor spheroids, viability
# Assay: Anticancer human tumor 997726-040-R-J2-PDC patient-derived squamous cell lung carcinoma cell line growth inhibition [PI3K]
# Settings: spheroids with HUVEC and MSC; for IC50: curve of first compound; for viability, T/C: stronger effect = lower value
# Summary of the method: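 Complex 3D spheroids (cancer cells + endothelial HUVEC + mesenchymal stem cells); drug pairs of targeted agent x inavolisib/alpelisib/duvelisib/copanlisib; half-log series from ~Cmax, max 10 microM if Cmax unknown; endpoint viability.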
# [1] = second compound 0.0316 µM, first compound 0.000316 µM
# [2] = second compound 0.0316 µM, first compound 0.001 µM
# [3] = second compound 0.0316 µM, first compound 0.00316 µM
# [4] = second compound 0.0316 µM, first compound 0.01 µM
# [5] = second compound 0.0316 µM, first compound 0.0316 µM
# [6] = second compound 0.0316 µM, first compound 0.1 µM
# [7] = second compound 0.1 µM, first compound 0.000316 µM
# [8] = second compound 0.1 µM, first compound 0.001 µM
# [9] = second compound 0.1 µM, first compound 0.00316 µM
# [10] = second compound 0.1 µM, first compound 0.01 µM
# [11] = second compound 0.1 µM, first compound 0.0316 µM
# [12] = second compound 0.1 µM, first compound 0.1 µM
# [13] = second compound 0.316 µM, first compound 0.000316 µM
# [14] = second compound 0.316 µM, first compound 0.001 µM
# [15] = second compound 0.316 µM, first compound 0.00316 µM
# [16] = second compound 0.316 µM, first compound 0.01 µM
# [17] = second compound 0.316 µM, first compound 0.0316 µM
# [18] = second compound 0.316 µM, first compound 0.1 µM
# [19] = second compound 1 µM, first compound 0.000316 µM
# [20] = second compound 1 µM, first compound 0.001 µM
# [21] = second compound 1 µM, first compound 0.00316 µM
# [22] = second compound 1 µM, first compound 0.01 µM
# [23] = second compound 1 µM, first compound 0.0316 µM
# [24] = second compound 1 µM, first compound 0.1 µM
# [25] = second compound 3.16 µM, first compound 0.000316 µM
# [26] = second compound 3.16 µM, first compound 0.001 µM
# [27] = second compound 3.16 µM, first compound 0.00316 µM
# [28] = second compound 3.16 µM, first compound 0.01 µM
# [29] = second compound 3.16 µM, first compound 0.0316 µM
# [30] = second compound 3.16 µM, first compound 0.1 µM
# [31] = second compound 10 µM, first compound 0.000316 µM
# [32] = second compound 10 µM, first compound 0.001 µM
# [33] = second compound 10 µM, first compound 0.00316 µM
# [34] = second compound 10 µM, first compound 0.01 µM
# [35] = second compound 10 µM, first compound 0.0316 µM
# [36] = second compound 10 µM, first compound 0.1 µM
# [37] = second compound 0.0316 µM, first compound 0.316 µM
# [38] = second compound 0.0316 µM, first compound 1 µM
# [39] = second compound 0.0316 µM, first compound 3.16 µM
# [40] = second compound 0.0316 µM, first compound 10 µM
# [41] = second compound 0.1 µM, first compound 0.316 µM
# [42] = second compound 0.1 µM, first compound 1 µM
# [43] = second compound 0.1 µM, first compound 3.16 µM
# [44] = second compound 0.1 µM, first compound 10 µM
# [45] = second compound 0.316 µM, first compound 0.316 µM
# [46] = second compound 0.316 µM, first compound 1 µM
# [47] = second compound 0.316 µM, first compound 3.16 µM
# [48] = second compound 0.316 µM, first compound 10 µM
# [49] = second compound 1 µM, first compound 0.316 µM
# [50] = second compound 1 µM, first compound 1 µM
# [51] = second compound 1 µM, first compound 3.16 µM
# [52] = second compound 1 µM, first compound 10 µM
# [53] = second compound 3.16 µM, first compound 0.316 µM
# [54] = second compound 3.16 µM, first compound 1 µM
# [55] = second compound 3.16 µM, first compound 3.16 µM
# [56] = second compound 3.16 µM, first compound 10 µM
# [57] = second compound 10 µM, first compound 0.316 µM
# [58] = second compound 10 µM, first compound 1 µM
# [59] = second compound 10 µM, first compound 3.16 µM
# [60] = second compound 10 µM, first compound 10 µM
# 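Note: spheroids exposed to compounds for seven days before readout.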
smiles,measurement,setting,value
CC(=O)c1c(C)c2cnc(Nc3ccc(N4CCNCC4)cn3)nc2n(C2CCCC2)c1=O + CC(Nc1ncnc2nc[nH]c12)c1cc2cccc(Cl)c2c(=O)n1-c1ccccc1,IC50,second compound 0.0316 µM,> 0.1 µM
same,IC50,second compound 0.1 µM,> 0.1 µM
same,IC50,second compound 0.316 µM,> 0.1 µM
same,IC50,second compound 1 µM,> 0.1 µM
same,IC50,second compound 3.16 µM,> 0.1 µM
same,IC50,second compound 10 µM,0.0106 µM
same,"viability, T/C",[1],94%
same,"viability, T/C",[2],109%
same,"viability, T/C",[3],93.7%
same,"viability, T/C",[4],87.7%
same,"viability, T/C",[5],86.1%
same,"viability, T/C",[6],61.2%
same,"viability, T/C",[7],102%
same,"viability, T/C",[8],94.8%
same,"viability, T/C",[9],91.3%
same,"viability, T/C",[10],96.6%
same,"viability, T/C",[11],78.3%
same,"viability, T/C",[12],65.5%
same,"viability, T/C",[13],99.8%
same,"viability, T/C",[14],96.7%
same,"viability, T/C",[15],91.3%
same,"viability, T/C",[16],83.5%
same,"viability, T/C",[17],81.6%
same,"viability, T/C",[18],57.3%
same,"viability, T/C",[19],97.1%
same,"viability, T/C",[20],85.7%
same,"viability, T/C",[21],86.9%
same,"viability, T/C",[22],74.1%
same,"viability, T/C",[23],75.8%
same,"viability, T/C",[24],53.3%
same,"viability, T/C",[25],72.9%
same,"viability, T/C",[26],71.7%
same,"viability, T/C",[27],77.3%
same,"viability, T/C",[28],70.1%
same,"viability, T/C",[29],58.4%
same,"viability, T/C",[30],50.4%
same,"viability, T/C",[31],53.9%
same,"viability, T/C",[32],51.6%
same,"viability, T/C",[33],56.9%
same,"viability, T/C",[34],50.4%
same,"viability, T/C",[35],41.8%
same,"viability, T/C",[36],43.4%
CC(C)n1nc(-c2ccc3oc(N)nc3c2)c2c(N)ncnc21 + CC(Nc1ncnc2nc[nH]c12)c1cc2cccc(Cl)c2c(=O)n1-c1ccccc1,IC50,second compound 0.0316 µM,0.0234 µM
same,IC50,second compound 0.1 µM,0.025 µM
same,IC50,second compound 0.316 µM,0.0239 µM
same,IC50,second compound 1 µM,0.0208 µM
same,IC50,second compound 3.16 µM,0.00614 µM
same,IC50,second compound 10 µM,0.00251 µM
same,"viability, T/C",[1],99.1%
same,"viability, T/C",[2],89.6%
same,"viability, T/C",[3],77.3%
same,"viability, T/C",[4],62.1%
same,"viability, T/C",[5],50%
same,"viability, T/C",[6],18%
same,"viability, T/C",[7],99.3%
same,"viability, T/C",[8],88.2%
same,"viability, T/C",[9],80.2%
same,"viability, T/C",[10],64%
same,"viability, T/C",[11],48.6%
same,"viability, T/C",[12],19.5%
same,"viability, T/C",[13],93.2%
same,"viability, T/C",[14],90.7%
same,"viability, T/C",[15],75.3%
same,"viability, T/C",[16],62.8%
same,"viability, T/C",[17],48.7%
same,"viability, T/C",[18],17.4%
same,"viability, T/C",[19],86.2%
same,"viability, T/C",[20],83.1%
same,"viability, T/C",[21],70.2%
same,"viability, T/C",[22],63.8%
same,"viability, T/C",[23],43.4%
same,"viability, T/C",[24],17%
same,"viability, T/C",[25],75.4%
same,"viability, T/C",[26],65.2%
same,"viability, T/C",[27],53.2%
same,"viability, T/C",[28],45.4%
same,"viability, T/C",[29],39.4%
same,"viability, T/C",[30],16.7%
same,"viability, T/C",[31],56.8%
same,"viability, T/C",[32],51.4%
same,"viability, T/C",[33],50%
same,"viability, T/C",[34],41.8%
same,"viability, T/C",[35],31.2%
same,"viability, T/C",[36],11.9%
CC1(C)CCC(CN2CCN(c3ccc(C(=O)NS(=O)(=O)c4ccc(NCC5CCOCC5)c([N+](=O)[O-])c4)c(Oc4cnc5[nH]ccc5c4)c3)CC2)=C(c2ccc(Cl)cc2)C1 + CC(Nc1ncnc2nc[nH]c12)c1cc2cccc(Cl)c2c(=O)n1-c1ccccc1,IC50,second compound 0.0316 µM,> 10 µM
same,IC50,second compound 0.1 µM,9.87 µM
same,IC50,second compound 0.316 µM,9.36 µM
same,IC50,second compound 1 µM,> 10 µM
same,IC50,second compound 3.16 µM,6.26 µM
same,IC50,second compound 10 µM,3.37 µM
same,"viability, T/C",[5],101%
same,"viability, T/C",[6],87.9%
same,"viability, T/C",[37],93.4%
same,"viability, T/C",[38],102%
same,"viability, T/C",[39],104%
same,"viability, T/C",[40],52.2%
same,"viability, T/C",[11],102%
same,"viability, T/C",[12],94%
same,"viability, T/C",[41],109%
same,"viability, T/C",[42],105%
same,"viability, T/C",[43],98.6%
same,"viability, T/C",[44],49.4%
same,"viability, T/C",[17],97.1%
same,"viability, T/C",[18],95.4%
same,"viability, T/C",[45],103%
same,"viability, T/C",[46],93.5%
same,"viability, T/C",[47],91.7%
same,"viability, T/C",[48],47.2%
same,"viability, T/C",[23],94.3%
same,"viability, T/C",[24],85.7%
same,"viability, T/C",[49],92%
same,"viability, T/C",[50],80.6%
same,"viability, T/C",[51],89.9%
same,"viability, T/C",[52],51%
same,"viability, T/C",[29],73.1%
same,"viability, T/C",[30],74.5%
same,"viability, T/C",[53],73%
same,"viability, T/C",[54],72.4%
same,"viability, T/C",[55],71.9%
same,"viability, T/C",[56],35.1%
same,"viability, T/C",[35],55.7%
same,"viability, T/C",[36],56.4%
same,"viability, T/C",[57],48.3%
same,"viability, T/C",[58],53.8%
same,"viability, T/C",[59],51.2%
same,"viability, T/C",[60],29.4%
CCCS(=O)(=O)Nc1ccc(F)c(C(=O)c2c[nH]c3ncc(-c4ccc(Cl)cc4)cc23)c1F + CC(Nc1ncnc2nc[nH]c12)c1cc2cccc(Cl)c2c(=O)n1-c1ccccc1,IC50,second compound 0.0316 µM,7.29 µM
same,IC50,second compound 0.1 µM,7.37 µM
same,IC50,second compound 0.316 µM,7.39 µM
same,IC50,second compound 1 µM,7.17 µM
same,IC50,second compound 3.16 µM,5.94 µM
same,IC50,second compound 10 µM,4.43 µM
same,"viability, T/C",[5],104%
same,"viability, T/C",[6],103%
same,"viability, T/C",[37],128%
same,"viability, T/C",[38],137%
same,"viability, T/C",[39],162%
same,"viability, T/C",[40],20.9%
same,"viability, T/C",[11],107%
same,"viability, T/C",[12],116%
same,"viability, T/C",[41],110%
same,"viability, T/C",[42],121%
same,"viability, T/C",[43],166%
same,"viability, T/C",[44],23.1%
same,"viability, T/C",[17],103%
same,"viability, T/C",[18],102%
same,"viability, T/C",[45],114%
same,"viability, T/C",[46],138%
same,"viability, T/C",[47],169%
same,"viability, T/C",[48],23.1%
same,"viability, T/C",[23],102%
same,"viability, T/C",[24],95.5%
same,"viability, T/C",[49],109%
same,"viability, T/C",[50],126%
same,"viability, T/C",[51],146%
same,"viability, T/C",[52],23%
same,"viability, T/C",[29],71.1%
same,"viability, T/C",[30],80%
same,"viability, T/C",[53],83.9%
same,"viability, T/C",[54],85.4%
same,"viability, T/C",[55],107%
same,"viability, T/C",[56],20.5%
same,"viability, T/C",[35],53.7%
same,"viability, T/C",[36],57.2%
same,"viability, T/C",[57],60.1%
same,"viability, T/C",[58],60.4%
same,"viability, T/C",[59],82.6%
same,"viability, T/C",[60],19.3%
